In patent US9758537B2 (Achillion Pharmaceuticals, Inc., priority 2014, dated 2017) one finds IC50 data, which are given here for 23 compounds.

Human factor D, sequence (P00746 26-253): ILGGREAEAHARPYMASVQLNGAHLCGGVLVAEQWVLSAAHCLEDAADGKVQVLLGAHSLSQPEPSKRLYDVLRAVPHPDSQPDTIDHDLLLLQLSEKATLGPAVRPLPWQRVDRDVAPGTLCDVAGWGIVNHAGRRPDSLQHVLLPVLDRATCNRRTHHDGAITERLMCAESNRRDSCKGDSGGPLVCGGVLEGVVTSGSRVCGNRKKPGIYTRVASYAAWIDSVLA

This assay has as its target Human factor D (Homo sapiens (Human), UniProt P00746). The assay is described as follows: Human Factor D Assay. In kind it is biochemical. The following applies: human factor D 80 nM, substrate Z-L-Lys-SBzl, DTNB, OD405. The protocol: Human factor D (purified from human serum, Complement Technology, Inc.) at 80 nM final concentration is incubated with test compound at various concentrations for 5 minutes at room temperature in 50 mM Tris, 1M NaCl, pH 7.5. A synthetic substrate Z-L-Lys-SBzl and DTNB (Ellman's reagent) are added to final concentrations of 10 μM each. The increase in color is recorded at OD405 nm in a microplate in kinetic mode over 30 minutes with 30 second time points in a […]. IC50 values are calculated by non-linear regression from the percentage of inhibition of complement factor D activity as a function of test compound concentration.
A word on the IC50: it is the concentration needed to halve the response being measured. Read a high IC50 as a need for much substance. Turning to `COc1ccc2c(O[C@@H]3C[C@@H](C(=O)NCc4cccc(Cl)c4F)N(C(=O)Cn4cc(C(C)=O)c5ccccc54)C3)cc(-c3ccccc3)nc2c1` [Compound 29, (2S,4R)-1-(2-(3-acetyl-1H-indol-1-yl)acetyl)-N-(3-chloro-2-fluorobenzyl)-4-(7-methoxy-2-phenylquinolin-4-yloxy)pyrrolidine-2-carboxamide], the IC50 was greater than 10 µM.
The figure for `NC(=O)N1C[C@H](F)C[C@H]1Cn1cc(-c2ccc(F)c(Cl)c2)nn1` [Compound 30, (2S,4R)-2-((4-(3-chloro-4-fluorophenyl)-1H-1,2,3-triazol-1-yl)methyl)-4-fluoropyrrolidine-1-carboxamide] is greater than 10 µM; for `NC(=O)n1cc(NC(=O)C2=C(C(=O)NCc3cccc(Cl)c3F)CCC2)c2ccccc21` [Compound 31, N1-(1-carbamoyl-1H-indol-3-yl)-N2-(3-chloro-2-fluorobenzyl)cyclopent-1-ene-1,2-dicarboxamide] it is greater than 10 µM; for `CC(=O)c1cn(CC(=O)N2C[C@H](F)C[C@H]2C(=O)N2Cc3ccccc3C2)c2ccccc12` [Compound 33, 2-(3-acetyl-1H-indol-1-yl)-1-((2S,4R)-4-fluoro-2-(isoindoline-2-carbonyl)pyrrolidin-1-yl)ethanone] it is greater than 10 µM.
The same measure for `CC(=O)c1cn(CC(=O)N2C[C@H](F)C[C@H]2C(=O)N(C)Cc2cccc(Cl)c2F)c2ccccc12` [Compound 34, (2S,4R)-1-(2-(3-acetyl-1H-indol-1-yl)acetyl)-N-(3-chloro-2-fluorobenzyl)-4-fluoro-N-methylpyrrolidine-2-carboxamide]: greater than 10 µM; for `CC(=O)c1cn(CC(=O)N2[C@H](C(=O)NCc3cccc(Cl)c3F)C[C@@H]3CCCC[C@@H]32)c2cc(O)ccc12` [Compound 35, (2S,3aS,7aS)-1-(2-(3-acetyl-6-hydroxy-1H-indol-1-yl)acetyl)-N-(3-chloro-2-fluorobenzyl)octahydro-1H-indole-2-carboxamide]: less than 1 µM.
The same measure for `N#Cc1cn(CC(=O)N2C[C@H](F)C[C@H]2C(=O)NCc2cccc(Cl)c2F)c2ccccc12` [Compound 36, (2S,4R)-N-(3-chloro-2-fluorobenzyl)-1-(2-(3-cyano-1H-indol-1-yl)acetyl)-4-fluoropyrrolidine-2-carboxamide]: less than 1 µM; for `O=C1CCCc2c1c1ccccc1n2CC(=O)N1C[C@H](F)C[C@H]1C(=O)NCc1cccc(Cl)c1F` [Compound 37, (2S,4R)-N-(3-chloro-2-fluorobenzyl)-4-fluoro-1-(2-(4-oxo-3,4-dihydro-1H-carbazol-9(2H)-yl)acetyl)pyrrolidine-2-carboxamide]: less than 1 µM; for `CC(C)(C)OC(=O)N[C@@H](Cc1c[nH]c2ccccc12)C(=O)N1C[C@H](F)C[C@H]1C(=O)NCc1cccc(Cl)c1F` [Compound 38, tert-butyl (S)-1-((2S,4R)-2-(3-chloro-2-fluorobenzylcarbamoyl)-4-fluoropyrrolidin-1-yl)-3-(1H-indol-3-yl)-1-oxopropan-2-ylcarbamate]: greater than 10 µM.
As for `N[C@@H](Cc1c[nH]c2ccccc12)C(=O)N1C[C@H](F)C[C@H]1C(=O)NCc1cccc(Cl)c1F` [Compound 39, (2S,4R)-1-((S)-2-amino-3-(1H-indol-3-yl)propanoyl)-N-(3-chloro-2-fluorobenzyl)-4-fluoropyrrolidine-2-carboxamide], the IC50 is greater than 10 µM.
The same measure for `O=C(NCc1cccc(Cl)c1F)[C@@H]1C[C@@H](F)CN1C(=O)Cn1cc([N+](=O)[O-])c2ccccc21` [Compound 46, (2S,4R)-N-(3-chloro-2-fluorobenzyl)-4-fluoro-1-(2-(3-nitro-1H-indol-1-yl)acetyl)pyrrolidine-2-carboxamide]: less than 1 µM.
`CC(=O)Nc1cn(CC(=O)N2C[C@H](F)C[C@H]2C(=O)NCc2cccc(Cl)c2F)c2ccccc12` [Compound 47, (2S,4R)-1-(2-(3-acetamido-1H-indol-1-yl)acetyl)-N-(3-chloro-2-fluorobenzyl)-4-fluoropyrrolidine-2-carboxamide] had an IC50 of less than 1 µM.
The compound `CC(=O)c1cn(CC(=O)N2C[C@H](F)C[C@H]2C(=O)Nc2cccc(SC(F)(F)F)c2)c2cc(O)ccc12` [Compound 48, (2S,4R)-1-(2-(3-acetyl-6-hydroxy-1H-indol-1-yl)acetyl)-4-fluoro-N-(3-(trifluoromethylthio)phenyl)pyrrolidine-2-carboxamide] came in with a 50% inhibitory concentration (IC50) of less than 1 µM.
`O=C(NCc1cccc(Cl)c1F)[C@@H]1C[C@@H](F)CN1C(=O)c1csc(-c2cccnc2)n1` [Compound 50, (2S,4R)-N-(3-chloro-2-fluorobenzyl)-4-fluoro-1-(2-(pyridin-3-yl)thiazole-4-carbonyl)pyrrolidine-2-carboxamide] displayed an IC50 greater than 10 µM.
The figure for `CC(=O)Nc1ccc(C(=O)N2C[C@H](F)C[C@H]2C(=O)NCc2cccc(Cl)c2F)cn1` [Compound 51, (2S,4R)-1-(6-acetamidonicotinoyl)-N-(3-chloro-2-fluorobenzyl)-4-fluoropyrrolidine-2-carboxamide] is greater than 10 µM.
The same measure for `O=C(NCc1cccc(Cl)c1F)[C@@H]1C[C@@H](F)CN1C(=O)Cn1nc(I)c2ccncc21` [Compound 52, (2S,4R)-N-(3-chloro-2-fluorobenzyl)-4-fluoro-1-(2-(3-iodo-1H-pyrazolo[3,4-c]pyridin-1-yl)acetyl)pyrrolidine-2-carboxamide]: less than 1 µM; for `O=C(NCc1cccc(Cl)c1F)[C@@H]1C[C@@H](F)CN1C(=O)Nc1cn(C(=O)C2CC2)c2ccccc12` [Compound 54, (2S,4R)-N2-(3-chloro-2-fluorobenzyl)-N1-(1-(cyclopropanecarbonyl)-1H-indol-3-yl)-4-fluoropyrrolidine-1,2-dicarboxamide]: less than 1 µM; for `CC(=O)c1cn(C(C)C(=O)N2C[C@H](F)C[C@H]2C(=O)NCc2cccc(Cl)c2F)c2ccccc12` (some centres unmarked) [Compound 55]: greater than 10 µM.
The figure for `CC(=O)c1cn(C(C)(C)C(=O)N2C[C@H](F)C[C@H]2C(=O)NCc2cccc(Cl)c2F)c2ccccc12` [Compound 56] is greater than 10 µM.
The compound `CCOP(=O)(OCC)c1cc(Cl)c(F)c(CNC(=O)[C@@H]2C[C@@H](F)CN2C(=O)Cn2cc(C(C)=O)c3ccccc32)c1` [Compound 61] gave an IC50 of less than 1 µM.
The same measure for `CC(=O)c1cn(CC(=O)N2[C@@H]3CCC[C@@H]3C[C@H]2C(=O)NCc2cccc(Cl)c2F)c2cc(O)ccc12` [Compound 62]: less than 1 µM; for `CC(=O)c1cn(CC(=O)N2C[C@H](F)C[C@H]2C(=O)NCc2cc(P(=O)(O)O)cc(Cl)c2F)c2ccccc12` [Compound 63, 3-(((2S,4R)-1-(2-(3-acetyl-1H-indol-1-yl)acetyl)-4-fluoropyrrolidine-2-carboxamido)methyl)-5-chloro-4-fluorophenylphosphonic acid]: less than 1 µM.
The same measure for `O=C(NCc1cccc(Cl)c1F)[C@@H]1C[C@@H](F)CN1C(=O)CN1C=NS(=O)(=O)c2ccccc21` [Compound 65, (2S,4R)-N-(3-chloro-2-fluorobenzyl)-1-(2-(1,1-dioxido-4H-benzo[e][1,2,4]thiadiazin-4-yl)acetyl)-4-fluoropyrrolidine-2-carboxamide]: greater than 10 µM.
